Laboratory results published in PMC12514245, “Impaired migration and lung invasion of human melanoma by a novel small molecule targeting the transmembrane domain of death receptor p75^NTR” (EMBO Molecular Medicine, 2025).
Values joined by “and” are separate entries in the source; they are usually repeats but may differ in a detail not shown here. Equal entries are not always repeated. “Also recorded” adds a separate entry of the source.

Key:
p75^NTR TMD I252A = molecular target: T1, p75^NTR TMD I252A (Homo sapiens, UniProt P08138, I252A); assay: AraTM assay, I252A mutant p75NTR TMD; format: cell-based; conditions: for GFP/OD630, Mean / GFP/OD630, individual replicates: I252A
T1 construct: Comparison of wild-type (WT) p75^NTR TMD and I252A, P253G and V254A mutants in the AraTM assay; expressed in transfected cells; host or cells: E. coli AS19 (LPS-negative)
T1 sequence (P08138 250-275 I252A): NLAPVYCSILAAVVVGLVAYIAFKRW

p75^NTR TMD = molecular target: T2, p75^NTR TMD (Homo sapiens, UniProt P08138); assay: AraTM assay, wild-type p75NTR TMD (GFP/OD630); format: cell-based
T2 sequence (P08138 250-275 limits assumed): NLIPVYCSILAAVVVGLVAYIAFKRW

A875 NT cells = assay: Boyden chamber chemotaxis/invasion assay, A875 NT; format: cell-based, human; conditions: for Fold change - invading cells, Mean / Fold change - invading cells, individual replicates: 1μM
Procedure: For Boyden chamber assay, Corning® BioCoat™ Matrigel® Invasion Chambers 8.0 µm PET Membrane were used (cat. no. 354480). A875 NT or WM115 cells were serum-starved for 16 h and then seeded at 60,000 cells per well in serum-free media under different conditions, including DMSO (vehicle) or small molecules Div17E5 or Np75-4A22 at different concentrations to the top chamber of the Matrigel-coated trans-well chamber. The pan-caspase inhibitor Q_VD_poH (at 5 µM) was also introduced in the top chamber in some experiments. Two different chemoattractants, NGF (at 50 ng/ml or 100 ng/ml as indicated) or 10% FBS were added to the bottom chamber. Assays were carried out for 8 h after which filters were fixed in 4% PFA and stained with DAPI. Cells that had remained on the top of the filter were gently scrapped away with a cotton tip. The filter lower side was imaged on an inverted fluorescence microscope and counted using ImageJ software (NIH).

p75^NTR TMD P253G = molecular target: T3, p75^NTR TMD P253G (Homo sapiens, UniProt P08138, P253G); assay: AraTM assay, P253G mutant p75NTR TMD; format: cell-based; conditions: for GFP/OD630, Mean / GFP/OD630, individual replicates: P253G
T3 construct: Comparison of wild-type (WT) p75^NTR TMD and I252A, P253G and V254A mutants in the AraTM assay; expressed in transfected cells; host or cells: E. coli AS19 (LPS-negative)

[1] = wt, compound 10 μM, Figure 5C-E
[2] = wt, compound 20 μM, Figure 5C-E
[3] = wt, compound 30 μM, Figure 5C-E
[4] = wt, compound 40 μM, Figure 5C-E

T3 sequence (P08138 251-272 P253G limits assumed): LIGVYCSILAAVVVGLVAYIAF

Cc1cccc(-c2cncc(Nc3ccc(Br)c(Cl)c3Cl)n2)c1C [Np75-4A22]
effect of Ile252 mutation on compound activity in AraTM assay (p75^NTR TMD I252A): affected
GFP/OD630, Mean (p75^NTR TMD I252A; compound 5 μM): 0.99
GFP/OD630, individual replicates (p75^NTR TMD I252A; compound 5 μM): 0.93 and 1.08 and 0.97
GFP/OD630, Mean (p75^NTR TMD I252A; compound 10 μM): 0.85
GFP/OD630, individual replicates (p75^NTR TMD I252A; compound 10 μM): 0.76 and 0.91 and 0.89
GFP/OD630, Mean (p75^NTR TMD I252A; compound 20 μM): 0.84
GFP/OD630, individual replicates (p75^NTR TMD I252A; compound 20 μM): 1.01 and 0.83 and 0.69
GFP/OD630, Mean (p75^NTR TMD I252A; compound 30 μM): 0.73
GFP/OD630, individual replicates (p75^NTR TMD I252A; compound 30 μM): 0.91 and 0.67 and 0.61
GFP/OD630, Mean (p75^NTR TMD I252A; compound 40 μM): 0.72
GFP/OD630, individual replicates (p75^NTR TMD I252A; compound 40 μM): 0.77 and 0.62 and 0.76
IC50 in the AraTM assay, compared with Div17E5 (p75^NTR TMD): improved IC50 compared to Div17E5
GFP/OD630, Mean (p75^NTR TMD; compound 2 μM, Figure 5B): 0.98
GFP/OD630, individual replicates (p75^NTR TMD; compound 2 μM, Figure 5B): 0.97 and 0.96 and 1.01
GFP/OD630, Mean (p75^NTR TMD; compound 4 μM, Figure 5B): 0.58
GFP/OD630, individual replicates (p75^NTR TMD; compound 4 μM, Figure 5B): 0.59 and 0.58 and 0.56
GFP/OD630, Mean (p75^NTR TMD; compound 6 μM, Figure 5B): 0.46
GFP/OD630, individual replicates (p75^NTR TMD; compound 6 μM, Figure 5B): 0.46 and 0.49 and 0.42
GFP/OD630, Mean (p75^NTR TMD; compound 8 μM, Figure 5B): 0.41
GFP/OD630, individual replicates (p75^NTR TMD; compound 8 μM, Figure 5B): 0.41 and 0.43 and 0.37
GFP/OD630, Mean (p75^NTR TMD; compound 10 μM, Figure 5B): 0.39
GFP/OD630, individual replicates (p75^NTR TMD; compound 10 μM, Figure 5B): 0.36 and 0.38 and 0.43
activity in the AraTM assay (p75^NTR TMD; structure-activity comparison): better performance at low micromolar concentrations; also recorded: best compounds; also recorded: best compound in the 4A series
GFP/OD630, Mean (p75^NTR TMD; wt, compound 5 μM, Figure 5C-E): 0.78
GFP/OD630, individual replicates (p75^NTR TMD; wt, compound 5 μM, Figure 5C-E): 0.78 and 0.81 and 0.74
GFP/OD630, Mean (p75^NTR TMD; [1]): 0.57
GFP/OD630, individual replicates (p75^NTR TMD; [1]): 0.53 and 0.48 and 0.68
GFP/OD630, Mean (p75^NTR TMD; [2]): 0.49
GFP/OD630, individual replicates (p75^NTR TMD; [2]): 0.48 and 0.44 and 0.56
GFP/OD630, Mean (p75^NTR TMD; [3]): 0.34
GFP/OD630, individual replicates (p75^NTR TMD; [3]): 0.46 and 0.29 and 0.27
GFP/OD630, Mean (p75^NTR TMD; [4]): 0.32
GFP/OD630, individual replicates (p75^NTR TMD; [4]): 0.31 and 0.34 and 0.30
INVADING CELLS Average (A875 NT cells; 0.5μM, NGF (50 ng/ml)): 217.00
INVADING CELLS Fold Average (A875 NT cells; 0.5μM, NGF (50 ng/ml)): 1.60 Fold
INVADING CELLS Fold change (A875 NT cells; 0.5μM, NGF (50 ng/ml)): 1.65 Fold and 1.68 Fold and 1.46 Fold
INVADING CELLS count (A875 NT cells; 0.5μM, NGF (50 ng/ml)): 224 and 229 and 198
INVADING CELLS Average (A875 NT cells; 0.5μM, No NGF): 115.33
INVADING CELLS Fold Average (A875 NT cells; 0.5μM, No NGF): 0.85 Fold
INVADING CELLS Fold change (A875 NT cells; 0.5μM, No NGF): 0.82 Fold and 0.92 Fold and 0.80 Fold
INVADING CELLS count (A875 NT cells; 0.5μM, No NGF): 112 and 125 and 109
INVADING CELLS Average (A875 NT cells; 0.75μM, NGF (50 ng/ml)): 161.00
INVADING CELLS Fold Average (A875 NT cells; 0.75μM, NGF (50 ng/ml)): 1.18 Fold
INVADING CELLS Fold change (A875 NT cells; 0.75μM, NGF (50 ng/ml)): 1.31 Fold and 1.11 Fold and 1.13 Fold
INVADING CELLS count (A875 NT cells; 0.75μM, NGF (50 ng/ml)): 178 and 151 and 154
INVADING CELLS Average (A875 NT cells; 0.75μM, No NGF): 131.00
INVADING CELLS Fold Average (A875 NT cells; 0.75μM, No NGF): 0.96 Fold
INVADING CELLS Fold change (A875 NT cells; 0.75μM, No NGF): 0.99 Fold and 1.01 Fold and 0.90 Fold
INVADING CELLS count (A875 NT cells; 0.75μM, No NGF): 134 and 137 and 122
Fold change - invading cells, Mean (A875 NT cells; NGF): 1.46
Fold change - invading cells, individual replicates (A875 NT cells; NGF): 1.24 and 1.52 and 1.63
Fold change - invading cells, Mean (A875 NT cells; no NGF): 0.96
Fold change - invading cells, individual replicates (A875 NT cells; no NGF): 1.22 and 0.88 and 0.78
NGF activity in Boyden chamber assay of cell chemotaxis (A875 NT cells; 1 μM, NGF 50 ng/ml): blocked all NGF activity
NGF-induced A875 chemotaxis (A875 NT cells; submicromolar concentrations, NGF 50 ng/ml): significantly reducing
effect of Pro253 mutation on compound activity in AraTM assay (p75^NTR TMD P253G): unaffected
GFP/OD630, Mean (p75^NTR TMD P253G; compound 5 μM): 0.71
GFP/OD630, individual replicates (p75^NTR TMD P253G; compound 5 μM): 0.58 and 0.64 and 0.9
GFP/OD630, Mean (p75^NTR TMD P253G; compound 10 μM): 0.74
GFP/OD630, individual replicates (p75^NTR TMD P253G; compound 10 μM): 0.6 and 0.87 and 0.74
GFP/OD630, Mean (p75^NTR TMD P253G; compound 20 μM): 0.58
GFP/OD630, individual replicates (p75^NTR TMD P253G; compound 20 μM): 0.43 and 0.66 (2×)
GFP/OD630, Mean (p75^NTR TMD P253G; compound 30 μM): 0.52
GFP/OD630, individual replicates (p75^NTR TMD P253G; compound 30 μM): 0.72 and 0.32 and 0.53
GFP/OD630, Mean (p75^NTR TMD P253G; compound 40 μM): 0.39
GFP/OD630, individual replicates (p75^NTR TMD P253G; compound 40 μM): 0.36 (2×) and 0.44
